Laboratory results from article PMC4923153, “Protection of Primary Dopaminergic Midbrain Neurons by GPR139 Agonists Supports Different Mechanisms of MPP^+ and Rotenone Toxicity” (Frontiers in Cellular Neuroscience, 2016).

Biological target: T1, human GPR139 receptor (Homo sapiens, UniProt Q6DWJ6)
T1 construct: expressed in transfected cells; host or cells: CHO-K1
T1 sequence (Q6DWJ6 1-353): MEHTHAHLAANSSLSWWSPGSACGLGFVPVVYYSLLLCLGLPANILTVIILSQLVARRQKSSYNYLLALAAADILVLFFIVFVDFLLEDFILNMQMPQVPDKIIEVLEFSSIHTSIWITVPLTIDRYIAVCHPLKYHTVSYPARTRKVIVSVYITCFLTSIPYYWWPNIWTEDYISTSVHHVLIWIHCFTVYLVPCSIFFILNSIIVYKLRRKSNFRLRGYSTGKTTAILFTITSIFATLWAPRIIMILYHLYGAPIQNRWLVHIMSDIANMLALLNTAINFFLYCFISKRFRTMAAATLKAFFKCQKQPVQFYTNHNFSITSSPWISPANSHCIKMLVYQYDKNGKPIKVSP
Assay: GPR139 calcium mobilization assay (CHO-K1 cells stably expressing the receptor)
Assay type: cell-based
Conditions: Ca2+ mobilization, determined as described (Shi et al., 2011); read-out: EC50 (GPR139 agonist)
Procedure: EC50 and IC50 for all compounds were determined as described (Shi et al., [2011]).
All compounds were further characterized using GPR139-based Ca^2+ mobilization assays (Figure 5).
Figure 5 Additional characterization of GPR139 compounds using kinetic fluorescence measurements and concentration-response determination in calcium mobilization assays. (A–D) Examples for the kinetic of relative fluorescence units (RFU) for compound 1 and 4 and related controls, involving a two-step addition protocol. (A) Cellular fluorescence response to addition of buffer (approximately at time 0:00 min) and a second addition of buffer at 3:20 min. (B) Cellular fluorescence response to addition of the Ca^2+ ionophore and reference compound for complete release of Ca^2+ from intracellular stores, ionomycin. (C) Cellular response to addition of 10 μM compound 1 at time 0:00. (D) Cellular fluorescence in response to antagonist compound 4 (at 0:00, 50 μM) and addition of agonist compound 1 at EC85 concentration. […]
Standard molecular cloning techniques were used to generate Chinese hamster ovary (CHO-K1) cells stably expressing the human GPR139 receptor. […] Calcium flux was measured using a Hamamatsu FDSS7000 imaging-based plate reader (Hamamatsu Photonics) using 480 nm excitation light and emitted fluorescent light passed through a 525 nm emission filter and detected by a CCD camera. […]

CN(C)C1CCN(C(=O)CNC(=O)Cc2cccc3ccccc23)C1 (stereo not shown) [compound 2, N-[2-(3-Dimethylamino-pyrrolidin-1-yl)-2-oxo-ethyl]-2-Naphthalen-1-yl-acetamide]
EC50: 530 nM
